From patent US20180036439A1, “COUPLED IDENTIFICATION AND TREATMENT OF CANCER” (priority 2009, published 2018)

Assays:
Type in all cases: in vivo, human
[1] = system: non-resectable primary liver cancer (hepatocellular carcinoma); test: oral gallium maltolate treatment of a subject with primary liver cancer; conditions: one patient
Protocol: (§1) The subject of this study was a person who was diagnosed with non-resectable primary liver cancer (hepatocellular carcinoma). The diagnosis was based on results of x-ray CT scans and tumor biopsy. Within two weeks of diagnosis the subject began treatment with Nexavar® (sorafenib) at a dose of 800 mg/day.
Based on the high avidity of the subject's hepatocellular carcinoma for gallium, as shown by the gallium scans, treatment of the patient with orally administered gallium maltolate was initiated. Treatment was started about a week after the gallium scans were performed. Gallium maltolate was administered as two 750 mg tablets taken once per day before breakfast (for a dose of 1500 mg/day). The largest tumor was about 20 cm in diameter by CT scan at three weeks before gallium maltolate administration was started.
The patient reported that their right abdominal pain was nearly gone, and they could lie and sleep on their right side.

[2] = system: liver tumors (hepatocellular carcinoma); test: gallium scan (planar and SPECT) after intravenous ^67Ga citrate; conditions: 134 MBq ^67Ga citrate i.v., one patient
Protocol: Very briefly, a gallium scan is performed by administering a small amount of a gallium radioisotope (usually ^67Ga) to a subject and then scanning the subject to map the distribution of resulting radioactivity in the body; the amount of radioactivity will be directly proportional to the uptake of gallium. Scanning is performed on the whole body or portions of the body using a scintillation detector or other suitable radiation detector.
Scanning is performed using a scintillation detector or another detector that is sensitive to the radiation produced by the gallium radioisotope (e.g., gamma rays for ^67Ga). For ^67Ga, a multipeak gamma camera with a large field of view and head shielding is commonly used. Scans may be either planar (two-dimensional (2-D) imaging) or as multiple tomographic scans leading to three-dimensional (3-D) imaging. The latter scans generally employ single-photon emission computerized tomography (SPECT or SPET), which may provide higher contrast and localization than planar images alone.
Planar and SPECT images were obtained 48 hours after ^67Ga citrate administration. […] At that time the subject was experiencing moderate nausea, anorexia, and fatigue, with severe pain and tenderness of the right abdomen that prevented the subject from lying on their right side.

[3] = tolerability of Nexavar treatment in the subject with primary liver cancer; conditions: 800 mg/day, terminated after about 10 weeks; one patient
Protocol: as §1

[4] = about four months into treatment, 1500 mg/day oral
[5] = two weeks after start of 1500 mg/day oral

In the case of Cc1occc(=O)c1[O-].Cc1occc(=O)c1[O-].Cc1occc(=O)c1[O-].[Ga+3] [gallium maltolate, tris(3-hydroxy-2-methyl-4H-pyran-4-onato)gallium], the “state of the primary tumor by CT scan” value [1, 4] is reported as “apparent necrosis of the primary tumor”, the “tumor growth by CT scan” value [1, 4] is reported as “no new tumor growth” and the “patient's condition” value ([1]; over the next six months of treatment, 1500 mg/day oral) is reported as “continued to improve”. The “serum bilirubin (total)” value ([1]; two weeks after start of 1500 mg/day oral, before treatment 27.5, normal 2-20) was 11.9 µmol/L, the “serum AST” value ([1]; two weeks after start of 1500 mg/day oral, before treatment 132, normal 0-40) was 70 IU/L and the “ability to engage in normal activities” value [1, 5] was “substantially increased”. For the same compound, the “right abdominal pain (patient report)” value [1, 5] was “nearly gone”.
In the case of O=C([O-])CC(O)(CC(=O)[O-])C(=O)[O-].[67Ga+3] [^67Ga citrate], the “gallium uptake in the surrounding liver tissue and in other organs” value ([2]; images 48 hours after administration) is reported as “very low uptake” and the “gallium uptake in the liver tumors, average counts per second relative to surrounding healthy liver tissue” value ([2]; planar and SPECT images 48 hours after administration) is reported as “twenty to fifty”.
For CNC(=O)c1cc(Oc2ccc(NC(=O)Nc3ccc(Cl)c(C(F)(F)F)c3)cc2)ccn1 [Nexavar®, sorafenib], the “adverse effects that led to termination of treatment” value [3] was “severe peripheral neuropathy, nausea, fatigue, gastrointestinal disorders, and anorexia”.
